The text below walks through data of ChEMBL document CHEMBL3137667, “[Drug-induced liver injury; fourteenth updated edition of the bibliographic database of liver injuries and related drugs]” (Gastroenterol Clin Biol, 2004).

Where a SMILES comes first, the peptide text is derived from it. Bridges are numbered along the chain shown (N, C = ends). [ ]: non-standard residue; d: D form. The star is where a group is joined. NMePhe(4-NMe2) = CN[C@@H](Cc1ccc(N(C)C)cc1)C(=O)O; Pip(4-oxo) = O=C1CCN[C@H](C(=O)O)C1; Picolinoyl(3-OH) = O=C(c1ncccc1O)*; Phg = N[C@H](C(=O)O)c1ccccc1; dAbu = CC[C@@H](N)C(=O)O

For data set [1] the following is noted: human.
Data set [2] is described as follows: Highest frequency of acute liver toxicity observed during clinical trials, expressed as a percentage. [column '% AIGUE' in source]. The settings on record: human.
For data set [3] the following is noted: human. The source holds these as a separate data set.
A short description of data set [4]: Highest frequency of moderate liver toxicity observed during clinical trials, expressed as a percentage. [column '% BIOL' in source]. Conditions: human.
For data set [5] the following is noted: human. The source holds these as a separate data set.
The conditions of data set [6]: human. This is another data set of the same source.
A short description of data set [7]: Times to onset, minimal and maximal, observed in the indexed observations. [column 'DELAI' in source]. The settings on record: human.
For data set [8] the following is noted: human, serum.
For data set [9] the following is noted: human. This is another data set of the same source.
For data set [10] the following is noted: human. The source holds these as a separate data set.
The conditions of data set [11]: human, serum. The source holds these as a separate data set.
The conditions of data set [12]: human, serum, 4383 h.
The conditions of data set [13]: human. This is another data set of the same source.
The conditions of data set [14]: human. This is another data set of the same source.
For data set [15] the following is noted: human. This is another data set of the same source.
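Throughout, for Hepatotoxicity (association with vascular disease): count of indexed literature references reporting vascular liver injury in humans, e.g. peliosis hepatitis, hepatic veno-occlusive disease or Budd-Chiari syndrome.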
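Throughout, for Hepatotoxicity (benign tumour): value is a count of indexed literature references citing a benign tumour confirmed by histopathology.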
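Throughout, for Hepatotoxicity (choleostasis): human cholestatic liver injury, shown by histopathology or by peak ALT or AST elevation over alkaline phosphatase ratio below 2, value counts indexed literature reports.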
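Throughout, for Hepatotoxicity (chronic liver disease): chronic liver injury confirmed by histopathology or persistently raised serum aminotransferase activity beyond 6 months, value given as the count of indexed literature references.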
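Throughout, for Hepatotoxicity (cirrhosis): value is a count of indexed literature references reporting cirrhosis confirmed by histopathology.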
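Throughout, for Hepatotoxicity (cytolytic): human cytolytic liver injury, shown by histopathology or by a ratio above 5 of peak ALT or AST elevation to alkaline phosphatase elevation, value counts indexed references.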
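Throughout, for Hepatotoxicity (granulomatous hepatitis): value is a count of indexed literature references reporting granulomatous liver disease confirmed by histopathology.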
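Throughout, for Hepatotoxicity (malignant tumour): malignant tumour confirmed by histopathology, value gives the count of indexed literature references reporting it.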
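Throughout, for Hepatotoxicity (severe hepatitis): human clinical data: severe hepatitis, meaning potentially life-threatening liver failure or clinically observed cases, the value counts how many indexed literature references report it.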
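Throughout, for Hepatotoxicity (steatosis): steatosis confirmed by histopathology, value is the count of indexed references.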

Regarding `CC(=O)O[C@@]12CO[C@@H]1C[C@H](O)[C@@]1(C)C(=O)[C@H](O)C3=C(C)[C@@H](OC(=O)[C@H](O)[C@@H](NC(=O)OC(C)(C)C)c4ccccc4)C[C@@](O)([C@@H](OC(=O)c4ccccc4)[C@H]21)C3(C)C.O.O.O` [DOCETAXEL], in data set [1], the “Hepatotoxicity (malignant tumour)” value worked out at 0. Besides, the “Hepatotoxicity (acute)” value worked out at 14.3% in [2] and 4 in data set [8]. Besides, the “Hepatotoxicity (association with vascular disease)” value in data set [3] is 0. Moreover, the “Hepatotoxicity (moderate)” value in [4] was 20%; in data set [11] it was 3. Moreover, the “Hepatotoxicity (cytolytic)” value in [5] is 2. Also, the “Hepatotoxicity (granulomatous hepatitis)” value in [6] is given as 0. In addition, the “Hepatotoxicity (time to onset)” value in [7] worked out at 3 days - 8 days. Moreover, in data set [9], the “Hepatotoxicity (benign tumour)” value is listed as 0. Besides, in data set [10], the “Hepatotoxicity (steatosis)” value worked out at 0. Also, the “Hepatotoxicity (chronic liver disease)” value in data set [12] amounted to 0. Besides, the “Hepatotoxicity (cirrhosis)” value in data set [13] was 0. Besides, in [14], the “Hepatotoxicity (severe hepatitis)” value is 1. The “Hepatotoxicity (choleostasis)” value in data set [15] is 1.
On to `CC(=O)N[C@H]1[C@H]([C@H](O)[C@H](O)CO)OC(C(=O)O)=C[C@@H]1N=C(N)N` [ZANAMIVIR], for which, in [1], the “Hepatotoxicity (malignant tumour)” value turned out to be 0. In addition, the “Hepatotoxicity (acute)” value in [2] was 0%; in data set [8] it was 0. The “Hepatotoxicity (association with vascular disease)” value in [3] is on record as 0. Besides, the “Hepatotoxicity (moderate)” value in data set [4] is 14.5%; in data set [11], 2. The “Hepatotoxicity (cytolytic)” value in data set [5] is 0. In addition, in data set [6], the “Hepatotoxicity (granulomatous hepatitis)” value turned out to be 0. In data set [7], the “Hepatotoxicity (time to onset)” value is recorded as 8 days. For the same molecule, in data set [9], the “Hepatotoxicity (benign tumour)” value stood at 0. In addition, in [10], the “Hepatotoxicity (steatosis)” value is on record as 0. Also, the “Hepatotoxicity (chronic liver disease)” value in data set [12] was 0. For the same molecule, the “Hepatotoxicity (cirrhosis)” value in [13] is 0. Besides, the “Hepatotoxicity (severe hepatitis)” value in data set [14] is recorded as 0. Further, the “Hepatotoxicity (choleostasis)” value in data set [15] amounted to 0.
Take `C=CCNc1nc(NCC=C)nc(N2CCN(C(c3ccc(F)cc3)c3ccc(F)cc3)CC2)n1` [ALMITRINE]: the “Hepatotoxicity (malignant tumour)” value in [1] was 0. The entries for the “Hepatotoxicity (acute)” value in [2] and in data set [8] were 0% and 1, respectively. The “Hepatotoxicity (association with vascular disease)” value in [3] is 0. The entries for the “Hepatotoxicity (moderate)” value in data set [4] and in [11] were 0% and 0, respectively. The “Hepatotoxicity (cytolytic)” value in data set [5] was determined as 1. Besides, in data set [6], the “Hepatotoxicity (granulomatous hepatitis)” value came out at 0. Also, in data set [7], the “Hepatotoxicity (time to onset)” value came to 1 week. In [9], the “Hepatotoxicity (benign tumour)” value stood at 0. Besides, the “Hepatotoxicity (steatosis)” value in [10] was determined as 0. In [12], the “Hepatotoxicity (chronic liver disease)” value was 0. The “Hepatotoxicity (cirrhosis)” value in data set [13] is listed as 0. Moreover, the “Hepatotoxicity (severe hepatitis)” value in [14] is 0. In addition, the “Hepatotoxicity (choleostasis)” value in data set [15] came to 0.
Turning to SERRAPEPTASE, in data set [1], the “Hepatotoxicity (malignant tumour)” value is 0. Moreover, the “Hepatotoxicity (acute)” value in data set [2] was 0%; in data set [8], 1. For the same molecule, in data set [3], the “Hepatotoxicity (association with vascular disease)” value is recorded as 0. Also, the “Hepatotoxicity (moderate)” value was 0% in data set [4] and 0 in data set [11]. Besides, the “Hepatotoxicity (cytolytic)” value in data set [5] amounted to 0. Also, the “Hepatotoxicity (granulomatous hepatitis)” value in data set [6] is recorded as 1. Also, the “Hepatotoxicity (time to onset)” value in [7] is 2 days. Further, the “Hepatotoxicity (benign tumour)” value in [9] stood at 0. For the same molecule, the “Hepatotoxicity (steatosis)” value in [10] is listed as 0. Besides, in data set [12], the “Hepatotoxicity (chronic liver disease)” value is listed as 0. In addition, the “Hepatotoxicity (cirrhosis)” value in data set [13] was determined as 0. Moreover, in [14], the “Hepatotoxicity (severe hepatitis)” value stood at 0. The “Hepatotoxicity (choleostasis)” value in [15] stood at 0.
`Cc1cn([C@H]2C[C@H](F)[C@@H](CO)O2)c(=O)[nH]c1=O` [ALOVUDINE]: the “Hepatotoxicity (malignant tumour)” value in [1] stood at 0. Moreover, the “Hepatotoxicity (acute)” value came to 3.3% in data set [2] and 1 in data set [8]. Also, the “Hepatotoxicity (association with vascular disease)” value in [3] was found to be 0. In addition, the results for the “Hepatotoxicity (moderate)” value in [4] and in data set [11] were 0% and 0, respectively. Moreover, the “Hepatotoxicity (cytolytic)” value in data set [5] is recorded as 0. Further, the “Hepatotoxicity (granulomatous hepatitis)” value in [6] came out at 0. The “Hepatotoxicity (time to onset)” value in data set [7] is given as below 3 months. The “Hepatotoxicity (benign tumour)” value in data set [9] was 0. Besides, the “Hepatotoxicity (steatosis)” value in data set [10] is 0. In addition, in data set [12], the “Hepatotoxicity (chronic liver disease)” value was 0. The “Hepatotoxicity (cirrhosis)” value in [13] came out at 0. Moreover, the “Hepatotoxicity (severe hepatitis)” value in data set [14] was found to be 1. Further, the “Hepatotoxicity (choleostasis)” value in [15] was found to be 0.
For `CC[C@H]1NC(=O)[C@@H](NC(=O)c2ncccc2O)[C@@H](C)OC(=O)[C@H](c2ccccc2)NC(=O)[C@@H]2CC(=O)CCN2C(=O)[C@H](Cc2ccc(N(C)C)cc2)N(C)C(=O)[C@@H]2CCCN2C1=O` [PRISTINAMYCIN 1A] ({Picolinoyl(3-OH)}-T[dAbu]P[NMePhe(4-NMe2)][Pip(4-oxo)][Phg]; ester 1-C), the “Hepatotoxicity (malignant tumour)” value in data set [1] is reported as 0. Further, the entries for the “Hepatotoxicity (acute)” value in data set [2] and in [8] were 0% and 1, respectively. Also, in data set [3], the “Hepatotoxicity (association with vascular disease)” value amounted to 0. For the same molecule, the “Hepatotoxicity (moderate)” value in data set [4] was 0%; in data set [11], 0. In addition, the “Hepatotoxicity (cytolytic)” value in data set [5] was 1. Further, the “Hepatotoxicity (granulomatous hepatitis)” value in data set [6] turned out to be 0. In addition, in [7], the “Hepatotoxicity (time to onset)” value turned out to be 1.5 months. The “Hepatotoxicity (benign tumour)” value in data set [9] turned out to be 0. Further, the “Hepatotoxicity (steatosis)” value in data set [10] came out at 0. The “Hepatotoxicity (chronic liver disease)” value in [12] is given as 0. Further, the “Hepatotoxicity (cirrhosis)” value in [13] came to 0. In [14], the “Hepatotoxicity (severe hepatitis)” value is recorded as 0. The “Hepatotoxicity (choleostasis)” value in [15] turned out to be 0.
On to `CC1(C)S[C@@H]2[C@H](NC(=O)[C@H](C(=O)O)c3ccsc3)C(=O)N2[C@H]1C(=O)O.O=C(O)[C@H]1/C(=C/CO)O[C@@H]2CC(=O)N21`, for which, in data set [1], the “Hepatotoxicity (malignant tumour)” value turned out to be 0. The “Hepatotoxicity (acute)” value in data set [2] is 0%; in [8] it was 2. Further, the “Hepatotoxicity (association with vascular disease)” value in data set [3] turned out to be 0. For the same molecule, the “Hepatotoxicity (moderate)” value in data set [4] was 33%; in [11], 54. For the same molecule, in data set [5], the “Hepatotoxicity (cytolytic)” value stood at 0. In [6], the “Hepatotoxicity (granulomatous hepatitis)” value was 0. Besides, the “Hepatotoxicity (time to onset)” value in [7] stood at 1 day - 6 weeks. In data set [9], the “Hepatotoxicity (benign tumour)” value is listed as 0. Further, in [10], the “Hepatotoxicity (steatosis)” value stood at 0. Besides, in data set [12], the “Hepatotoxicity (chronic liver disease)” value was found to be 0. Further, the “Hepatotoxicity (cirrhosis)” value in data set [13] is 0. In data set [14], the “Hepatotoxicity (severe hepatitis)” value is recorded as 1. For the same molecule, in data set [15], the “Hepatotoxicity (choleostasis)” value turned out to be 2.
With `N=C(N)NCC1COc2ccccc2O1` (stereo not given) [GUANOXAN], in data set [1], the “Hepatotoxicity (malignant tumour)” value is 0. In addition, the “Hepatotoxicity (acute)” value in data set [2] is 10%; in [8], 2. Besides, the “Hepatotoxicity (association with vascular disease)” value in data set [3] was determined as 0. Also, the “Hepatotoxicity (moderate)” value came to 30% in data set [4] and 2 in data set [11]. Besides, in data set [5], the “Hepatotoxicity (cytolytic)” value is listed as 1. Besides, the “Hepatotoxicity (granulomatous hepatitis)” value in [6] stood at 0. Further, the “Hepatotoxicity (time to onset)” value in [7] stood at 2 months - 1 year. The “Hepatotoxicity (benign tumour)” value in data set [9] came to 0. In addition, the “Hepatotoxicity (steatosis)” value in data set [10] was found to be 0. Moreover, in data set [12], the “Hepatotoxicity (chronic liver disease)” value was 0. For the same molecule, the “Hepatotoxicity (cirrhosis)” value in data set [13] is recorded as 0. In addition, in data set [14], the “Hepatotoxicity (severe hepatitis)” value is reported as 1. Further, the “Hepatotoxicity (choleostasis)” value in data set [15] was 2.
With “[3-(8,8-Diethyl-2-aza-8-germa-spiro[4.5]dec-2-yl)-propyl]-dimethyl-amine”, the “Hepatotoxicity (malignant tumour)” value in data set [1] is 0. Further, the “Hepatotoxicity (acute)” value is on record as 6.5% in data set [2] and 2 in [8]. Also, the “Hepatotoxicity (association with vascular disease)” value in data set [3] is 0. Further, the “Hepatotoxicity (moderate)” value is on record as 27% in [4] and 6 in data set [11]. Also, the “Hepatotoxicity (cytolytic)” value in data set [5] was 0. For the same molecule, the “Hepatotoxicity (granulomatous hepatitis)” value in [6] was determined as 0. Further, the “Hepatotoxicity (time to onset)” value in [7] worked out at 8 weeks. Further, in data set [9], the “Hepatotoxicity (benign tumour)” value was determined as 0. Moreover, the “Hepatotoxicity (steatosis)” value in [10] turned out to be 0. In data set [12], the “Hepatotoxicity (chronic liver disease)” value stood at 0. The “Hepatotoxicity (cirrhosis)” value in data set [13] came to 0. For the same molecule, the “Hepatotoxicity (severe hepatitis)” value in data set [14] turned out to be 0. The “Hepatotoxicity (choleostasis)” value in data set [15] stood at 0.
Consider `CCC[C@H](N[C@@H](C)C(=O)N1[C@H](C(=O)O)C[C@@H]2CCCC[C@@H]21)C(=O)OCC` [PERINDOPRIL], for which the “Hepatotoxicity (malignant tumour)” value in [1] is given as 0. Besides, the figures for the “Hepatotoxicity (acute)” value in [2] and in data set [8] were 0% and 1, respectively. Further, in data set [3], the “Hepatotoxicity (association with vascular disease)” value is recorded as 0. Further, the “Hepatotoxicity (moderate)” value in [4] amounted to 12.2%; in [11] it was 1. For the same molecule, in [5], the “Hepatotoxicity (cytolytic)” value is listed as 1. For the same molecule, in data set [6], the “Hepatotoxicity (granulomatous hepatitis)” value stood at 0. The “Hepatotoxicity (time to onset)” value in data set [7] is listed as 3 weeks. The “Hepatotoxicity (benign tumour)” value in data set [9] is recorded as 0. In addition, the “Hepatotoxicity (steatosis)” value in data set [10] was found to be 0. Moreover, the “Hepatotoxicity (chronic liver disease)” value in [12] was 0. Also, in [13], the “Hepatotoxicity (cirrhosis)” value worked out at 0. Further, the “Hepatotoxicity (severe hepatitis)” value in data set [14] worked out at 0. Besides, the “Hepatotoxicity (choleostasis)” value in [15] is listed as 0.
